Patent US20250255867A1 (Kadmon Corporation, LLC, priority 2022, published 2025)
Values joined by “and” are separate entries in the source; they are usually repeats but may differ in a detail not shown here. Equal values may be shown once.

Legend:
subjects with BOS [1] = assay: Example 3: FEV1 evaluation in BOS; type: in vivo, human
Description: Patients with BOS were identified as: 1) % predicted forced expiratory volume in 1 second (% FEV1) of £79% at enrollment, and 2) clinician attribution of lung disease due to cGVHD.
In Example 1, lung function assessments were conducted at baseline and on Day 1 of each cycle for patients with suspected of known lung involvement. In Example 2, lung function assessments were conducted at baseline and at the time of response assessments: Day 1 of cycles 2-5 and then on Day 1 of every other cycle thereafter.

[2] = Example 2: safety (AE, SAE, relative dose intensity); type: in vivo
Description: All responses were assessed by the study site investigators.

subjects with BOS [3] = assay: Example 3: Lee Symptom Scale lung score in BOS; type: in vivo, human
Text: Following the methodology used for the LSS, we identified a 10-point difference (half a standard deviation from baseline scores) as being a clinically meaningful organ-specific change in this dataset. (Lee S et al. Development and validation of a scale to measure symptoms of chronic graft-versus-host disease. Biol Blood Marrow Transplant 2002; 8 (8): 444-452; Teh C et al. Reliability and Validity of the Modified 7-Day Lee Chronic Graft-versus-Host Disease Symptom Scale. Biol Blood Marrow Transplant 2020; 26 (3): 562-567.) Forty subjects (68%) experienced a clinically meaningful improvement (10-point reduction) in the LSS lung score.

In the case of `CC(C)NC(=O)COc1cccc(-c2nc(Nc3ccc4[nH]ncc4c3)c3ccccc3n2)c1` [Belumosudil, 2-{3-[4-(1H-indazol-5-ylamino)-2-quinazolinyl]phenoxy}-N-(propan-2-yl) acetamide], the “Subjects with ^3 5% absolute improvement in % FEV1 from baseline” value (subjects with BOS [1]; 59 subjects) is reported as 39%, the “Subjects with ^3 10% absolute improvement in % FEV1 from baseline” value (subjects with BOS [1]; 59 subjects) is reported as 22% and the “Subjects with at least a 200 mL improvement in FEV1 from baseline” value (subjects with BOS [1]; Example 2 subjects only) is reported as 36%. For the same molecule, the “Subjects with ^3 5% absolute improvement in % FEV1” value (subjects with BOS [1]; baseline NIH lung score 1) was 57%, the “Subjects with ^3 5% absolute improvement in % FEV1” value (subjects with BOS [1]; baseline NIH lung score 2) was 13% and the “Subjects with ^3 5% absolute improvement in % FEV1” value (subjects with BOS [1]; baseline NIH lung score 3) was 50%. For the same molecule, the “Subjects with at least a 200 mL improvement in FEV1” value (subjects with BOS [1]; baseline lung score 1) was 41%, the “Subjects with at least a 200 mL improvement in FEV1” value (subjects with BOS [1]; baseline lung score 2) was 31% and the “Subjects with 200 mL improvement in FEV1” value (subjects with BOS [1]; non-responders) was 19%. For the same molecule, the “Subjects with ^3 5% absolute improvement in % FEV1” value (subjects with BOS [1]; non-responders) was 18%, the “Subjects with 200 mL improvement in FEV1” value (subjects with BOS [1]; responders by NIH criteria) was 66% and the “Subjects with ^3 5% absolute improvement in % FEV1” value (subjects with BOS [1]; responders by NIH criteria) was 84%. The ALT increased ([2]; 200 mg daily (n = 66)) was 4 (6) n (%), the AST increased ([2]; 200 mg daily (n = 66)) was 5 (8) n (%) and the “Any AE” value ([2]; 200 mg daily (n = 66)) was 65 (99) n (%). For the same molecule, the Bilirubin conjugated increased ([2]; 200 mg daily (n = 66)) was 1 (2) n (%), the “Blood alkaline phosphatase increased” value ([2]; 200 mg daily (n = 66)) was 4 (6) n (%) and the “Cough, all grades” value ([2]; 200 mg daily (n = 66)) was 20 (30) n (%). For the same molecule, the Deaths ([2]; 200 mg daily (n = 66)) was 8 (12) n (%), the “Diarrhea, all grades” value ([2]; 200 mg daily (n = 66)) was 23 (35) n (%) and the “Drug-related AEs” value ([2]; 200 mg daily (n = 66)) was 49 (74) n (%). For the same molecule, the “Drug-related SAEs” value ([2]; 200 mg daily (n = 66)) was 5 (8) n (%), the “Dyspnea, all grades” value ([2]; 200 mg daily (n = 66)) was 21 (32) n (%) and the “Fatigue, all grades” value ([2]; 200 mg daily (n = 66)) was 30 (46) n (%). The GGT increased ([2]; 200 mg daily (n = 66)) was 6 (9) n (%), the “Grade ≥3 AEs” value ([2]; 200 mg daily (n = 66)) was 37 (56) n (%) and the “Headache, all grades” value ([2]; 200 mg daily (n = 66)) was 13 (20) n (%). For the same molecule, the “Hyperglycemia, Grade ≥3” value ([2]; 200 mg daily (n = 66)) was 3 (5) n (%), the “Hypertension, Grade ≥3” value ([2]; 200 mg daily (n = 66)) was 4 (6) n (%) and the Hypoalbuminemia ([2]; 200 mg daily (n = 66)) was 2 (3) n (%). For the same molecule, the LFT increased ([2]; 200 mg daily (n = 66)) was 1 (2) n (%), the “Liver-related AEs” value ([2]; 200 mg daily (n = 66)) was 12 (18) n (%) and the “Muscle spasms, all grades” value ([2]; 200 mg daily (n = 66)) was 13 (20) n (%). For the same molecule, the “Nausea, all grades” value ([2]; 200 mg daily (n = 66)) was 23 (35) n (%), the “Peripheral edema, all grades” value ([2]; 200 mg daily (n = 66)) was 17 (26) n (%) and the “Pneumonia, Grade ≥3” value ([2]; 200 mg daily (n = 66)) was 6 (9) n (%). For the same molecule, the SAEs ([2]; 200 mg daily (n = 66)) was 27 (41) n (%), the Transaminases increased ([2]; 200 mg daily (n = 66)) was 1 (2) n (%) and the “Upper respiratory tract infection, all grades” value ([2]; 200 mg daily (n = 66)) was 17 (26) n (%). The “Vomiting, all grades” value ([2]; 200 mg daily (n = 66)) was 18 (27) n (%), the ALT increased ([2]; 200 mg twice daily (n = 66)) was 7 (11) n (%) and the AST increased ([2]; 200 mg twice daily (n = 66)) was 8 (12) n (%). For the same molecule, the “Any AE” value ([2]; 200 mg twice daily (n = 66)) was 66 (100) n (%), the Bilirubin conjugated increased ([2]; 200 mg twice daily (n = 66)) was 0 n (%) and the “Blood alkaline phosphatase increased” value ([2]; 200 mg twice daily (n = 66)) was 6 (9) n (%). The “Cough, all grades” value ([2]; 200 mg twice daily (n = 66)) was 17 (26) n (%), the Deaths ([2]; 200 mg twice daily (n = 66)) was 6 (9) n (%) and the “Diarrhea, all grades” value ([2]; 200 mg twice daily (n = 66)) was 21 (32) n (%). The “Drug-related AEs” value ([2]; 200 mg twice daily (n = 66)) was 40 (61) n (%), the “Drug-related SAEs” value ([2]; 200 mg twice daily (n = 66)) was 2 (3) n (%) and the “Dyspnea, all grades” value ([2]; 200 mg twice daily (n = 66)) was 12 (18) n (%). For the same molecule, the “Fatigue, all grades” value ([2]; 200 mg twice daily (n = 66)) was 20 (30) n (%), the GGT increased ([2]; 200 mg twice daily (n = 66)) was 10 (15) n (%) and the “Grade ≥3 AEs” value ([2]; 200 mg twice daily (n = 66)) was 34 (52) n (%). For the same molecule, the “Headache, all grades” value ([2]; 200 mg twice daily (n = 66)) was 18 (27) n (%), the “Hyperglycemia, Grade ≥3” value ([2]; 200 mg twice daily (n = 66)) was 3 (5) n (%) and the “Hypertension, Grade ≥3” value ([2]; 200 mg twice daily (n = 66)) was 4 (6) n (%). The Hypoalbuminemia ([2]; 200 mg twice daily (n = 66)) was 2 (3) n (%), the LFT increased ([2]; 200 mg twice daily (n = 66)) was 0 n (%) and the “Liver-related AEs” value ([2]; 200 mg twice daily (n = 66)) was 19 (29) n (%). For the same molecule, the “Muscle spasms, all grades” value ([2]; 200 mg twice daily (n = 66)) was 13 (20) n (%), the “Nausea, all grades” value ([2]; 200 mg twice daily (n = 66)) was 18 (27) n (%) and the “Peripheral edema, all grades” value ([2]; 200 mg twice daily (n = 66)) was 13 (20) n (%). The “Pneumonia, Grade ≥3” value ([2]; 200 mg twice daily (n = 66)) was 4 (6) n (%), the SAEs ([2]; 200 mg twice daily (n = 66)) was 23 (35) n (%) and the Transaminases increased ([2]; 200 mg twice daily (n = 66)) was 1 (2) n (%). For the same molecule, the “Upper respiratory tract infection, all grades” value ([2]; 200 mg twice daily (n = 66)) was 18 (27) n (%), the “Vomiting, all grades” value ([2]; 200 mg twice daily (n = 66)) was 10 (15) n (%) and the ALT increased ([2]; Total (N = 132)) was 11 (8) n (%). For the same molecule, the AST increased ([2]; Total (N = 132)) was 13 (10) n (%), the “Any AE” value ([2]; Total (N = 132)) was 131 (99) n (%) and the Bilirubin conjugated increased ([2]; Total (N = 132)) was 1 (1) n (%). For the same molecule, the “Blood alkaline phosphatase increased” value ([2]; Total (N = 132)) was 10 (8) n (%), the “Cough, all grades” value ([2]; Total (N = 132)) was 37 (28) n (%) and the “Diarrhea, all grades” value ([2]; Total (N = 132)) was 44 (33) n (%). For the same molecule, the “Drug-related AEs” value ([2]; Total (N = 132)) was 89 (67) n (%), the “Drug-related SAEs” value ([2]; Total (N = 132)) was 7 (5) n (%) and the “Dyspnea, all grades” value ([2]; Total (N = 132)) was 33 (25) n (%). The “Fatigue, all grades” value ([2]; Total (N = 132)) was 50 (38) n (%), the GGT increased ([2]; Total (N = 132)) was 16 (12) n (%) and the “Grade ≥3 AEs” value ([2]; Total (N = 132)) was 71 (54) n (%). The “Headache, all grades” value ([2]; Total (N = 132)) was 31 (24) n (%), the “Hyperglycemia, Grade ≥3” value ([2]; Total (N = 132)) was 6 (5) n (%) and the “Hypertension, Grade ≥3” value ([2]; Total (N = 132)) was 8 (6) n (%). The Hypoalbuminemia ([2]; Total (N = 132)) was 4 (3) n (%), the LFT increased ([2]; Total (N = 132)) was 1 (1) n (%) and the “Liver-related AEs” value ([2]; Total (N = 132)) was 31 (24) n (%). For the same molecule, the “Muscle spasms, all grades” value ([2]; Total (N = 132)) was 26 (20) n (%), the “Nausea, all grades” value ([2]; Total (N = 132)) was 41 (31) n (%) and the “Peripheral edema, all grades” value ([2]; Total (N = 132)) was 30 (23) n (%). The “Pneumonia, Grade ≥3” value ([2]; Total (N = 132)) was 10 (8) n (%), the SAEs ([2]; Total (N = 132)) was 50 (38) n (%) and the Transaminases increased ([2]; Total (N = 132)) was 2 (2) n (%). The “Upper respiratory tract infection, all grades” value ([2]; Total (N = 132)) was 35 (27) n (%), the “Vomiting, all grades” value ([2]; Total (N = 132)) was 28 (21) n (%) and the Deaths ([2]; Total (N = 132), six died during LTFU (>28 days after last dose)) was 14 (11) n (%). The “Discontinued because of overall AEs” value ([2]; in vivo) was 21%, the “Discontinued because of possible drug-related AEs” value ([2]; in vivo) was 12% and the “Grade 3 or 4 hyperglycemia” value ([2]; in vivo) was 5%. For the same molecule, the “Grade 3 or 4 hypertension” value ([2]; in vivo) was 6%, the “Grade 3 or 4 pneumonia” value ([2]; in vivo) was 8% and the “Grade ≥3 anemia” value ([2]; in vivo) was 3%. The “Grade ≥3 cytopenias” value ([2]; in vivo) was < 4%, the “Grade ≥3 neutropenia” value ([2]; in vivo) was 2% and the “Grade ≥3 thrombocytopenia” value ([2]; in vivo) was 2%. For the same molecule, the “Increased GGT (liver-related AE)” value ([2]; in vivo) was 12%, the “Median RDI” value ([2]; in vivo) was 99.7% and the “SAE pneumonia, subjects” value ([2]; in vivo) was 7%. For the same molecule, the “Subjects who died during the study” value ([2]; in vivo) was “Fourteen”, the “Subjects who received an RDI >95%” value ([2]; in vivo) was “Eighty-one” and the “Subjects with >1 SAE” value ([2]; in vivo) was “Thirty eight”. For the same molecule, the “Subjects with increased liver function tests (LFTs)” value ([2]; in vivo) was “Twenty-four”, the “Cases of Epstein-Barr viremia that required treatment” value ([2]; unrelated to belumosudil) was 1 case and the “Cases of cytomegalovirus (CMV) reactivation” value ([2]; unrelated to belumosudil) was 1 case. For the same molecule, the “Cases of cytomegalovirus (CMV) reactivation” value ([2]; unrelated to belumosudil, listed as belumosudil) was “one”, the “Subjects with clinically meaningful improvement (10-point reduction) in LSS lung score” value (subjects with BOS [3]; 59 subjects) was 68% and the “Clinically meaningful improvement in LSS lung score” value (subjects with BOS [3]; baseline NIH lung score 1) was 66%. For the same molecule, the “Clinically meaningful improvement in LSS lung score” value (subjects with BOS [3]; baseline NIH lung score 2) was 61%, the “Clinically meaningful improvement in LSS lung score” value (subjects with BOS [3]; baseline NIH lung score 3) was 100% and the “Clinically meaningful improvement in LSS lung score” value (subjects with BOS [3]; non-responders) was 68% and 67.5%. For the same molecule, the “Clinically meaningful improvement in LSS lung score” value (subjects with BOS [3]; subjects with 35% best improvement in % FEV1) was 61% and the “Clinically meaningful improvement in LSS lung score” value (subjects with BOS [3]; subjects with <5% best improvement in % FEV1) was 69%.
